Experimental data taken from ChEMBL document CHEMBL4138079, “New cycloartane type-triterpenoids from the areal parts of Caragana sukiensis and their biological activities” (Eur J Med Chem, 2017).
The source made the active and inactive calls. No cut-off for these calls is given here.

Columns and labels:
A549 [1] = test: Cell cycle arrest in human A549 cells assessed as sub G1 phase accumulation at 1 uM after 48 hrs by propidium iodide staining based FACS analysis (reference value: 0.96%); format: functional
A549 [2] = test: Induction of apoptosis in human A549 cells assessed as necrotic cells at 2 uM after 48 hrs by Annexin V-FITC/propidium iodide staining based flow cytometry (reference value: 0.35%); format: functional
A549 [3] = test: Cell cycle arrest in human A549 cells assessed as S phase accumulation at 1 uM after 48 hrs by propidium iodide staining based FACS analysis (reference value: 2.45%); format: functional
A549 [4] = test: Induction of apoptosis in human A549 cells assessed as cell population with intact mitochondrial membrane potential at 2 uM measured after 48 hrs by JC-1 staining based flow cytometry (reference value: 37.5%); format: functional
MCF7 = test: Cytotoxicity against human MCF7 cells assessed as reduction in cell viability after 48 hrs by MTT assay; format: functional, cell-based; settings: MCF7, 48 h
A549 [5] = test: Induction of apoptosis in human A549 cells assessed as early apoptotic cells at 2 uM after 48 hrs by Annexin V-FITC/propidium iodide staining based flow cytometry (reference value: 3.24%); format: functional
A549 [6] = test: Cell cycle arrest in human A549 cells assessed as sub G1 phase accumulation at 2 uM after 48 hrs by propidium iodide staining based FACS analysis (reference value: 0.96%); format: functional
A549 [7] = test: Cell cycle arrest in human A549 cells assessed as G0/G1 phase accumulation at 1 uM after 48 hrs by propidium iodide staining based FACS analysis (reference value: 77.91%); format: functional
HeLa = test: Cytotoxicity against human HeLa cells assessed as reduction in cell viability after 48 hrs by MTT assay; format: functional, cell-based
HEK293 = test: Cytotoxicity against human HEK293 cells assessed as reduction in cell viability after 48 hrs by MTT assay; format: cell-based; settings: HEK293, 48 h
A549 [8] = test: Induction of apoptosis in human A549 cells assessed as necrotic cells at 1 uM after 48 hrs by Annexin V-FITC/propidium iodide staining based flow cytometry (reference value: 0.35%); format: functional
A549 [9] = test: Induction of apoptosis in human A549 cells assessed as live cells at 2 uM after 48 hrs by Annexin V-FITC/propidium iodide staining based flow cytometry (reference value: 91.22%); format: functional
A549 [10] = test: Cytotoxicity against human A549 cells assessed as reduction in cell viability after 48 hrs by MTT assay; format: functional, cell-based; settings: A549, 48 h
Spodoptera litura [11] = test: Antifeedant activity in Spodoptera litura assessed as pupal mortality after 24 hrs by leaf disk method (reference value: 0%); format: functional
A549 [12] = test: Cell cycle arrest in human A549 cells assessed as G2/M phase accumulation at 1 uM after 48 hrs by propidium iodide staining based FACS analysis (reference value: 16.81%); format: functional
A549 [13] = test: Cell cycle arrest in human A549 cells assessed as S phase accumulation at 2 uM after 48 hrs by propidium iodide staining based FACS analysis (reference value: 2.45%); format: functional
A549 [14] = test: Induction of apoptosis in human A549 cells assessed as cell population with intact mitochondrial membrane potential at 1 uM measured after 48 hrs by JC-1 staining based flow cytometry (reference value: 37.5%); format: functional
DU-145 = test: Cytotoxicity against human DU145 cells assessed as reduction in cell viability after 48 hrs by MTT assay; format: functional, cell-based; settings: DU-145, 48 h
Spodoptera litura [15] = test: Antifeedant activity in Spodoptera litura third-instar larvae assessed as increase in feeding deterrence after 24 hrs by leaf disk method; format: functional
Spodoptera litura [16] = test: Antifeedant activity in Spodoptera litura third-instar larvae assessed as increase in feeding deterrence by measuring antifeedant index at 5 ug/cm2 after 24 hrs by leaf disk method; format: functional
A549 [17] = test: Induction of apoptosis in human A549 cells assessed as cell population with mitochondrial membrane potential loss at 1 uM measured after 48 hrs by JC-1 staining based flow cytometry (reference value: 27.4%); format: functional
Spodoptera litura [18] = test: Antifeedant activity in Spodoptera litura assessed as pupal weight after 24 hrs by leaf disk method (reference value: 0.245 +/- 0.02 g); format: functional
A549 [19] = test: Induction of apoptosis in human A549 cells assessed as late apoptotic cells at 1 uM after 48 hrs by Annexin V-FITC/propidium iodide staining based flow cytometry (reference value: 5.19%); format: functional
A549 [20] = test: Induction of apoptosis in human A549 cells after 48 hrs by Annexin V-FITC/propidium iodide staining based flow cytometry; format: functional, cell-based
A549 [21] = test: Induction of apoptosis in human A549 cells assessed as cell population with mitochondrial membrane potential loss at 2 uM measured after 48 hrs by JC-1 staining based flow cytometry (reference value: 27.4%); format: functional
A549 [22] = test: Induction of apoptosis in human A549 cells assessed as live cells at 1 uM after 48 hrs by Annexin V-FITC/propidium iodide staining based flow cytometry (reference value: 91.22%); format: functional
A549 [23] = test: Cell cycle arrest in human A549 cells assessed as G0/G1 phase accumulation at 2 uM after 48 hrs by propidium iodide staining based FACS analysis (reference value: 77.91%); format: functional
A549 [24] = test: Cell cycle arrest in human A549 cells assessed as G2/M phase accumulation at 2 uM after 48 hrs by propidium iodide staining based FACS analysis (reference value: 16.81%); format: functional
Spodoptera litura [25] = test: Insecticidal activity in Spodoptera litura third-instar larvae assessed as larval mortality at 5 ug/cm2 after 24 hrs by leaf disk method relative to control; format: functional; settings: foliar
A549 [26] = test: Induction of apoptosis in human A549 cells assessed as late apoptotic cells at 2 uM after 48 hrs by Annexin V-FITC/propidium iodide staining based flow cytometry (reference value: 5.19%); format: functional
A549 [27] = test: Induction of apoptosis in human A549 cells assessed as early apoptotic cells at 1 uM after 48 hrs by Annexin V-FITC/propidium iodide staining based flow cytometry (reference value: 3.24%); format: functional
Spodoptera litura [28] = test: Antifeedant activity in Spodoptera litura third-instar larvae assessed as larval duration time after 24 hrs by leaf disk method (reference value: 10.1 +/- 0.1 day); format: functional
A549 [29] = test: Induction of apoptosis in human A549 cells assessed as morphological change at 1 uM after 48 hrs by Hoechst 33258 staining based fluorescence microscopic analysis; format: functional, cell-based
A549 [30] = test: Cell cycle arrest in human A549 cells assessed as G0/G1 phase accumulation after 48 hrs by propidium iodide staining based FACS analysis; format: functional

CC(C)(O)[C@@H]1CC[C@](C)([C@H]2[C@@H](O)C[C@@]3(C)[C@@H]4C[C@H](O)[C@H]5C(C)(C)[C@@H](O)CC[C@@]56C[C@@]46CC[C@]23C)O1
Activity (A549 [1]): 0.4% | Activity (A549 [2]): 1.16% | Activity (A549 [3]): 2.41% | Activity (A549 [4]): 38.6% | IC50 (MCF7): 1780 nM | Activity (A549 [5]): 3.94% | Activity (A549 [6]): 0.84% | Activity (A549 [7]): 82.05% | IC50 (HeLa): 2200 nM | IC50 (HEK293): 128000 nM | Activity (A549 [8]): 0.96% | Activity (A549 [9]): 71.07% | IC50 (A549 [10]): 1540 nM | mortality (Spodoptera litura [11]): 89.6% | Activity (A549 [12]): 14.45% | Activity (A549 [13]): 0.87% | Activity (A549 [14]): 39.6% | IC50 (DU-145): 7260 nM | ED50 (Spodoptera litura [15]): 11.96 microg/cm2 | Activity_index (Spodoptera litura [16]): 59.9 | Activity (A549 [17]): 29% | Activity (Spodoptera litura [18]): 0.199 g | Activity (A549 [19]): 11.31% | Activity (A549 [20]): Dose-dependent effect | Activity (A549 [21]): 31.1% | Activity (A549 [22]): 83.55% | Activity (A549 [23]): 90.47% | Activity (A549 [24]): 7.29% | mortality at 5 µg/cm2 (Spodoptera litura [25]): 11.8% | Activity (A549 [26]): 23.83% | Activity (A549 [27]): 4.17% | Time (Spodoptera litura [28]): 14.2 days | Activity (A549 [29]): Active | Activity (A549 [30]): Dose-dependent effect
